# Source: patent publication US8703765B2, “Cyclic inhibitors of 11β-hydroxysteroid dehydrogenase 1” (Boehringer Ingelheim International GmbH, priority 2009, dated 2014)
# Biological target: T1, 11β-HSD1 (Homo sapiens, UniProt P28845)
# T1 construct: detecting cortisol generated from cortisterone by human liver microsomes; from tissue; host or cells: human liver microsomes
# Assay: In vitro inhibition of 11β-HSD1, HTRF detection of cortisol generated by human liver microsomes
# Type: biochemical
# Details: cortisone 80 nM, NADPH 200 μM, 1 hour at 37° C., pH 6.0
# Description: In vitro inhibition of 11 β-HSD1 by test compounds was determined with HTRF (Homogeneous Time-Resolved Fluorescence) technology (cisbio international, France) detecting cortisol generated from cortisterone by human liver microsomes. Briefly, compounds were incubated for 1 hour at 37° C. in Tris buffer (20 mM tris, 5 mM EDTA, pH 6.0) containing NADPH (200 μM) and cortisone (80 nM). Cortisol generated in the reaction was then detected with a competitive immunoassay, involving two HTRF conjugates: cortisol linked to XL665 and anti-cortisol antibody labeled with Europium cryptate. The incubation period for detection reaction was typically 2 hours. The amount of cortisol was determined by reading the time-resolved fluorescence of the wells (Ex 320/75 nm; Em 615/8.5 nm and 665/7.5 nm). The ratio of the two emission signals is then calculated (Em665*10000/Em615). […] Each assay also contained a calibration curve with cortisol to transform the fluorescent data into cortisol concentrations. Percent inhibition of each compound was determined relative to the carbenoxolone signal and IC50 curves were generated.
# In Table 1 the 11β-HSD 1 inhibitory activities, determined as described above, are compiled.
# T1 sequence (P28845 whole entry): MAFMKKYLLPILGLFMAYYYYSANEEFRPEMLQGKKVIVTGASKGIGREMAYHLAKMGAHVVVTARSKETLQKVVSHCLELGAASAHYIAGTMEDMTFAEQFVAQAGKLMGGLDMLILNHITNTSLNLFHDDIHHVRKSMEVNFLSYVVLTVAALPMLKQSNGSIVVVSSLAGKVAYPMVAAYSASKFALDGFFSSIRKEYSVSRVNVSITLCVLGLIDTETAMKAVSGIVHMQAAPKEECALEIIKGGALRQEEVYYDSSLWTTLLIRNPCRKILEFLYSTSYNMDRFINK
row,IC50 [µM],SMILES
1,0.96,"CC(C)(O)C[C@@]1(c2ccccc2)CCN([C@H](c2ccc(Br)cc2)C2CC2)C(=O)O1 (racemic) [Example 2, 3-[(4-Bromo-phenyl)-cyclopropyl-methyl]-6-(2-hydroxy-2-methyl-propyl)-6-phenyl-[1,3]oxazinan-2-one]"
2,> 4.5,"Cn1ccc(-c2ccc([C@@H](C3CC3)N3CC[C@@](CC(C)(C)O)(c4ccccc4)OC3=O)cc2)cc1=O [Example 3b, 3-{(R)-cyclopropyl-[4-(1-methyl-2-oxo-1,2-dihydro-pyridin-4-yl)-phenyl]methyl}-(R)-6-(2-hydroxy-2-methyl-propyl)-6-phenyl-[1,3]oxazinan-2-one]"
3,0.111,"Cn1ccc(-c2ccc(C(C3CC3)N3CCC(CC(C)(C)O)(c4ccccc4)OC3=O)cc2)cc1=O (stereo not drawn) [Example 3, 3-{Cyclopropyl-[4-(1-methyl-2-oxo-1,2-dihydro-pyridin-4-yl)-phenyl]-methyl}-6-(2-hydroxy-2-methyl-propyl)-6-phenyl-[1,3]oxazinan-2-one]"
4,> 10,"Cn1ccc(-c2ccc([C@H](C3CC3)N3CC[C@@](CC(C)(C)O)(c4ccccc4)OC3=O)cc2)cc1=O (racemic) [Example 4, 3-{Cyclopropyl-[4-(1-methyl-2-oxo-1,2-dihydro-pyridin-4-yl)-phenyl]-methyl}-6-(2-hydroxy-2-methyl-propyl)-6-phenyl-[1,3]oxazinan-2-one]"
5,0.07,"Cn1cc(-c2ccc([C@H](C3CC3)N3CC[C@](CC(C)(C)O)(c4ccccc4)OC3=O)cc2)ccc1=O [Example 10, 3-{(S)-Cyclopropyl-[4-(1-methyl-6-oxo-1,6-dihydro-pyridin-3-yl)-phenyl]-methyl}-(S)-6-(2-hydroxy-2-methyl-propyl)-6-phenyl-[1,3]oxazinan-2-one]"

# Continued, molecule first:
row,SMILES,IC50 [µM]
1,"CC(C)(O)C[C@]1(c2ccccc2)CCN([C@H](c2ccc(Br)cc2)C2CC2)C(=O)O1 [Example 6, 3-[(S)-(4-Bromo-phenyl)-cyclopropyl-methyl]-(S)-6-(2-hydroxy-2-methyl-propyl)-6-phenyl-[1,3]oxazinan-2-one]",0.053
2,"Cc1ncc(-c2ccc([C@H](C3CC3)N3CC[C@](CC(C)(C)O)(c4ccccc4)OC3=O)cc2)cn1 [Example 11, 3-{(S)-Cyclopropyl-[4-(2-methyl-pyrimidin-5-yl)-phenyl]methyl}-(S)-6-(2-hydroxy-2-methyl-propyl)-6-phenyl-[1,3]oxazinan-2-one]",0.054
3,"Cn1ccc(-c2ccc([C@H](C3CC3)N3CC[C@](CC(C)(C)O)(c4ccccc4)OC3=O)cc2)cc1=O [Example 7, 3-{(S)-Cyclopropyl-[4-(1-methyl-2-oxo-1,2-dihydro-pyridin-4-yl)-phenyl]-methyl}-(S)-6-(2-hydroxy-2-methyl-propyl)-6-phenyl-[1,3]oxazinan-2-one]",0.064
4,"CC(C)(O)C[C@]1(c2ccccc2)CCN([C@H](c2ccc(-c3ccn(C4CC4)c(=O)c3)cc2)C2CC2)C(=O)O1 [Example 9, 3-{(S)-Cyclopropyl-[4-(1-cyclopropyl-2-oxo-1,2-dihydro-pyridin-4-yl)-phenyl]-methyl}-(S)-6-(2-hydroxy-2-methyl-propyl)-6-phenyl-[1,3]oxazinan-2-one]",0.038
5,"Cn1cc(-c2ccc(C(C3CC3)N3CCC(CC(C)(C)O)(c4ccccc4)OC3=O)cc2)ccc1=O (stereo not drawn) [Example 5, 3-{Cyclopropyl-[4-(1-methyl-6-oxo-1,6-dihydro-pyridin-3-yl)-phenyl]-methyl}-6-(2-hydroxy-2-methyl-propyl)-6-phenyl-[1,3]oxazinan-2-one]",0.035
6,"CC(C)(O)CC1(c2ccccc2)CCN(C(c2ccc(Br)cc2)C2CC2)C(=O)O1 (stereo not drawn) [Example 1, 3-[(4-Bromo-phenyl)-cyclopropyl-methyl]-6-(2-hydroxy-2-methyl-propyl)-6-phenyl-[1,3]oxazinan-2-one]",0.065
7,"Cc1ccc(-c2ccc([C@H](C3CC3)N3CC[C@](CC(C)(C)O)(c4ccccc4)OC3=O)cc2)nn1 [Example 8, 3-{(S)-Cyclopropyl-[4-(6-methyl-pyridazin-3-yl)-phenyl]methyl}-(S)-6-(2-hydroxy-2-methyl-propyl)-6-phenyl-[1,3]oxazinan-2-one]",0.029
